{"source": "patent US12503432B2", "about": "“Ionizable lipids for nucleic acid delivery” (Global Life Sciences Solutions Canada ULC, priority 2019, dated 2025)", "key": {"C57BL/6 mice": {"tested_on": "C57BL/6 mice", "experiment": "In vivo delivery of OVA-encoded mRNA LNP via intramuscular administration, anti-OVA-IgG ELISA of serum", "details": "5 μg OVA mRNA i.m. on Day 1 and 10, serum 2 weeks post second immunization, versus 50 ug OVA protein, FIG. 10", "experimental": "A lipid mixture of LM02b composition in ethanol was mixed with a low pH buffered solution of Ova mRNA at an N/P ratio of 8 using a NanoAssemblr® Ignite™ microfluidic mixer. The LNP were downstream processed using the Amicon™ ultra filtration technique and characterized for size, PDI and encapsulation efficiency. Size and PDI were measured using dynamic light scattering techniques, and nucleic acid encapsulation efficiency was calculated from a modified Quant-iT RiboGreen™ RNA assay. The hydrodynamic diameter of these mRNA-LNPs was ˜76 nm with a polydispersity index of 0.01 to 0.12 and an encapsulation efficiency of ˜95%\nAll animals were handled according to the Institutional Animal Care and Use Committee ethics protocols. For experiments, 6-8 week old C57BL/6 mice (n=4) were purchased from Envigo. […] Aliquots of serum samples were thawed and analyzed at appropriate dilutions for Ova expression and for IgG measurements using standard ELISA techniques.\nAnti-OVA-IgG ELISA of serum samples: Sera from the immunized mice were collected at 2 weeks post second immunization. OVA—specific production of IgG in response to OVA-encoded mRNA in various LNPs were measured by ELISA as described supra. […] After 30 minutes of incubation, a stop solution of 2 N sulphuric acid was added and a plate reader was used to determine absorbance at 450 nm. […]"}, "primary human T cells [1]": {"tested_on": "primary human T cells", "experiment": "CD19 CAR mRNA LNP expression in isolated primary human T cells", "format": "cell-based", "details": "CT10, N/P 8, transfected T cells in vitro, FIG. 9", "experimental": "FIG. 9 are two illustrations of CD19 CAR expression levels in isolated primary human T cells mediated by mRNA CT10 N/P 8 LNPs containing PNI 545, PNI 516, PNI132, PNI 542, PNI 565 incorporating CD19 CAR (chimeric antigen receptor) mRNA. Geometric mean fluorescence intensity of anti-CD19-PE fluorophore (top bar graph) and CD19 CAR positive T cell population (bottom histogram) were measured by flow cytometry 24 hours following LNP addition with 500 ng of encapsulated mRNA per 125,000 T cells 3 days after triple activation;\nCD19 CAR expression in isolated primary human T cells mediated by mRNA-LNPs containing IL with CT10 composition at N/P 8 was assayed after in vitro exposure. The CAR vector pcDNA3.1 anti-CD19-h(BB Lambda)-EGFP-2nd-CAR (T7 Mut) 7661 bp was purchased from Creative BioLabs, NY, USA.\nT cells were isolated from whole blood using a negative isolation procedure and T cell activation, and expansion was carried out by triple activation in ImmunoCult™ Human T Cell Expansion Media as described supra."}, "primary human T cells [2]": {"tested_on": "primary human T cells", "experiment": "EPO mRNA LNP delivery to primary human T cells, Quantikine IVD Human Epo ELISA", "format": "cell-based", "experimental": "Reagents were acquired from Quantikine, Minneapolis, MN. The assay was performed as directed on the Quantikine® IVD® ELISA Human Erythropoietin Immunoassay protocol in the package insert. Briefly; primary human T cells were isolated from fresh whole blood using a negative selection protocol and activated using a triple activator. Seven days post-activation, T cells were dosed with mRNA LNPs encoding EPO at […] mRNA per 500,000 cells and N/P 10. After 48 h of exposure, the T cells were harvested and lysed for cytosolic EPO and media supernatant was sampled for secreted EPO. Quantikine® Human Serum Controls were used."}, "[3]": {"details": "primary human T cells, 48 hours"}}}
{"smiles": "CC/C=C\\CC1C(CC(=O)OCC(COCCCCCCCC/C=C\\C/C=C\\CCCCC)OCCCCCCCC/C=C\\C/C=C\\CCCCC)CCC1OC(=O)C1(C)CCN(C)CC1", "note": "(centres unmarked) [PNI 123]", "values": [{"measurement": "OVA-specific IgG response", "setting": "C57BL/6 mice", "result": "the same or higher IgG response as that of a 10 fold higher dose of OVA protein"}]}
{"smiles": "CC/C=C\\CC1C(CC(=O)OCCC(CCCCCCCC)OC(=O)C(CCCCCC)CCCCCCCC)CCC1OC(=O)C1(C)CCN(C)CC1", "note": "(centres unmarked) [PNI 565]", "values": [{"measurement": "CD19 CAR expression", "setting": "primary human T cells [1]", "result": "greater than MC3 LNP"}]}
{"smiles": "CC/C=C\\CC1C(CC(=O)OCC(COCCCCCCCC/C=C\\C/C=C\\CCCCC)OCCCCCCCC/C=C\\C/C=C\\CCCCC)CCC1OC(=O)C1CCN(C)CC1", "note": "(centres unmarked) [PNI 132]", "values": [{"measurement": "OVA-specific IgG response", "setting": "C57BL/6 mice", "result": "the same or higher IgG response as that of a 10 fold higher dose of OVA protein"}]}
{"smiles": "CC/C=C\\CC1C(CC(=O)OCC(COCCCCCCCC/C=C\\C/C=C\\CCCCC)OCCCCCCCC/C=C\\C/C=C\\CCCCC)CCC1OC(=O)CCCN(C)C", "note": "(centres unmarked) [PNI 101]", "values": [{"measurement": "cytosolic EPO", "setting": "primary human T cells [2]; T cell lysate, 48 h exposure, N/P 10, FIG. 5", "result": "no cytosolic EPO"}, {"measurement": "secreted EPO", "setting": "primary human T cells [2]; media supernatant, 48 h exposure, N/P 10, FIG. 5", "result": "about 1016 mlU/mL"}, {"measurement": "EPO expression mediated by LNPs versus MC3", "setting": "primary human T cells [2]; [3]", "result": "higher than those containing MC3"}, {"measurement": "Fold increase in EPO concentration relative to MC3", "setting": "primary human T cells [2]; [3]", "result": 1.87}, {"measurement": "EPO concentration (mIU/mL), 48 hours", "setting": "primary human T cells [2]; primary human T cells, 48 hours, EPO mRNA LNP, N/P 10", "result": 1016.0, "unit": "mIU/mL"}]}
